Values quoted from earlier work, collected in US20100215725A1, “PHARMACEUTICAL COMPOSITION CONTAINING IDEBENONE FOR THE TREATMENT OF LIVER DISORDERS” (priority 2009, published 2010).

Tested on: rat liver microsomes
Conditions: pro-oxidative system NADPH/ADP/Fe3+

| SMILES | concentration offering complete protection against lipid peroxidation in microsomes [µM] |
| --- | --- |
| COC1=C(OC)C(=O)C(C/C=C(\C)CC/C=C(\C)CC/C=C(\C)CC/C=C(\C)CC/C=C(\C)CC/C=C(\C)CC/C=C(\C)CC/C=C(\C)CC/C=C(\C)CCC=C(C)C)=C(C)C1=O [coenzyme Q-10] | 100 |
| COC1=C(OC)C(=O)C(CCCCCCCCCCO)=C(C)C1=O [Idebenone, 2,3-dimethoxy-5-methyl-6-(10-hydroxydecyl)-1,4-benzoquinone] | 20 |
